# From patent publication US11927585B2, “Solvent-based inks and coatings for food contact applications” (SUN CHEMICAL CORPORATION, priority 2020, dated 2024)
# Key:
# [1] = Specific migration limit (SML) from regulation or hazard assessment (TTC, VEGA QSAR, Cramer Class); details: for SML (or restriction): Source of SML or restriction: HA (internal hazard assessment); for SML or Restriction (mg substance/kg food): source HA (internal hazard assessment), self-derived SML, EU Cube model
# [2] = Worst-case calculation, Application 1 yoghurt pot lid exposure scenario; details: 100% migration, 2.0 g/m^2 dry film
# [3] = Worst-case calculation (100% migration), standard EU Cube exposure model; details: for Worst-case calculation as a percentage of SML (or restriction), EU Cube / Worst Case Calculation of migration in EU Cube model (as a percentage of SML): 100% migration; for Worst-case calculation as a percentage of SML (or restriction), EU Cube: 2.0 g/m^2 dry film; for Worst Case Calculation of migration in EU Cube model (as a percentage of SML): dry coat weight 2.0 g/m^2
# [4] = Worst-case calculation, Application 2 cheese packaging wrap exposure scenario; details: 100% migration, 2.0 g/m^2 dry film
# [5] = substance in ink SBDEV977 (Ex. 4A Yellow)
# [6] = substance in ink SBDEV976 (Ex. 4C Cyan)
# [7] = substance in ink SBDEV980 (Ex. 4B Red)
smiles,measurement,setting,value
"c1ccc(-c2ccc(-c3nc(-c4ccc(-c5ccccc5)cc4)nc(-c4ccc(-c5ccccc5)cc4)n3)cc2)cc1 [1,3,5-Triazine, 2,4,6-Tris([1,1′-Biphenyl]-4-Yl)-]",SML (or restriction),[1],5 mg substance/kg food
"CCCC1OC(CCC)OC(CCC)O1 (stereo not shown) [2,4,6-tripropyl-1,3,5-Trioxane]",SML (or restriction),[1],0.09 mg substance/kg food
O=C1NCCN1 [2-Imidazolidinone],SML (or restriction),[1],4.98 mg substance/kg food
O=Cc1ccc(Cl)cc1 [4-Chlorobenzaldehyde],SML (or restriction),[1],0.09 mg substance/kg food
O=Cc1ccc(-c2ccccc2)cc1 [4-Phenylbenzaldehyde],SML (or restriction),[1],0.09 mg substance/kg food
NC(=O)c1ccc(-c2ccccc2)cc1 [4-Phenylbenzamide],SML (or restriction),[1],0.09 mg substance/kg food
O=C(O)c1ccc(-c2ccccc2)cc1 [4-Phenylbenzoic Acid],SML (or restriction),[1],0.09 mg substance/kg food
N#Cc1ccc(-c2ccccc2)cc1 [4-Phenylbenzonitrile],SML (or restriction),[1],0.09 mg substance/kg food
"O=C1NC(=O)c2ccccc21 [0000085-41-6, Phthalimide]","Worst-case calculation as a percentage of SML (or restriction), Application 1",[2]; product SBDEV977,377.6 percentage of SML (or restriction)
same,"Worst-case calculation as a percentage of SML (or restriction), Application 1",[2]; product SBDEV1287,373.7 percentage of SML (or restriction)
same,"Worst-case calculation as a percentage of SML (or restriction), EU Cube",[3]; product SBDEV977,960 percentage of SML (or restriction)
same,"Worst-case calculation as a percentage of SML (or restriction), EU Cube",[3]; product SBDEV1287,950 percentage of SML (or restriction)
same,Worst Case Calculation of migration in EU Cube model (as a percentage of SML),[3]; [5],960 percentage of SML
same,"Worst-case calculation as a percentage of SML (or restriction), Application 2",[4]; product SBDEV977,1382.4 percentage of SML (or restriction)
same,"Worst-case calculation as a percentage of SML (or restriction), Application 2",[4]; product SBDEV1287,1368.0 percentage of SML (or restriction)
same,SML or Restriction (mg substance/kg food),[1],0.09 mg substance/kg food
"c1ccc2ccccc2c1 [0000091-20-3, Naphthalene]","Worst-case calculation as a percentage of SML (or restriction), Application 1",[2]; product SBDEV976,0.2 percentage of SML (or restriction)
same,"Worst-case calculation as a percentage of SML (or restriction), Application 1",[2]; product SBDEV1286,0.2 percentage of SML (or restriction)
same,"Worst-case calculation as a percentage of SML (or restriction), EU Cube",[3]; product SBDEV976,0.4 percentage of SML (or restriction)
same,"Worst-case calculation as a percentage of SML (or restriction), EU Cube",[3]; product SBDEV1286,0.4 percentage of SML (or restriction)
same,Worst Case Calculation of migration in EU Cube model (as a percentage of SML),[3]; [6],0.4 percentage of SML
same,"Worst-case calculation as a percentage of SML (or restriction), Application 2",[4]; product SBDEV976,0.6 percentage of SML (or restriction)
same,"Worst-case calculation as a percentage of SML (or restriction), Application 2",[4]; product SBDEV1286,0.6 percentage of SML (or restriction)
"O=C(O)c1ccc(-c2ccccc2)cc1 [0000092-92-2, 4-Phenylbenzoic Acid]","Worst-case calculation as a percentage of SML (or restriction), Application 1",[2]; product SBDEV980,2.8 percentage of SML (or restriction)
same,"Worst-case calculation as a percentage of SML (or restriction), Application 1",[2]; product SBDEV1285,2.8 percentage of SML (or restriction)
same,"Worst-case calculation as a percentage of SML (or restriction), EU Cube",[3]; product SBDEV980,7 percentage of SML (or restriction)
same,"Worst-case calculation as a percentage of SML (or restriction), EU Cube",[3]; product SBDEV1285,7 percentage of SML (or restriction)
same,Worst Case Calculation of migration in EU Cube model (as a percentage of SML),[3]; [7],7 percentage of SML
same,"Worst-case calculation as a percentage of SML (or restriction), Application 2",[4]; product SBDEV980,10.1 percentage of SML (or restriction)
same,"Worst-case calculation as a percentage of SML (or restriction), Application 2",[4]; product SBDEV1285,10.1 percentage of SML (or restriction)
same,SML or Restriction (mg substance/kg food),[1],0.09 mg substance/kg food
"CCCCCCCC/C=C\CCCCCCCC(=O)N(CCO)CCO [0000093-83-4, N,N-Bis(2-hydroxyethyl) oleamide]","Worst-case calculation as a percentage of SML (or restriction), Application 1",[2]; product SBDEV977,27.1 percentage of SML (or restriction)
same,"Worst-case calculation as a percentage of SML (or restriction), Application 1",[2]; product SBDEV1287,26.7 percentage of SML (or restriction)
same,"Worst-case calculation as a percentage of SML (or restriction), EU Cube",[3]; product SBDEV977,69 percentage of SML (or restriction)
same,"Worst-case calculation as a percentage of SML (or restriction), EU Cube",[3]; product SBDEV1287,68 percentage of SML (or restriction)
same,Worst Case Calculation of migration in EU Cube model (as a percentage of SML),[3]; [5],69 percentage of SML
same,"Worst-case calculation as a percentage of SML (or restriction), Application 2",[4]; product SBDEV977,99.4 percentage of SML (or restriction)
same,"Worst-case calculation as a percentage of SML (or restriction), Application 2",[4]; product SBDEV1287,97.9 percentage of SML (or restriction)
same,SML or Restriction (mg substance/kg food),[1],0.09 mg substance/kg food
"O=Cc1ccc(Cl)cc1 [0000104-88-1, 4-Chlorobenzaldehyde]","Worst-case calculation as a percentage of SML (or restriction), Application 1",[2]; product SBDEV980,5.5 percentage of SML (or restriction)
same,"Worst-case calculation as a percentage of SML (or restriction), Application 1",[2]; product SBDEV1285,5.5 percentage of SML (or restriction)
same,"Worst-case calculation as a percentage of SML (or restriction), EU Cube",[3]; product SBDEV980,14 percentage of SML (or restriction)
same,"Worst-case calculation as a percentage of SML (or restriction), EU Cube",[3]; product SBDEV1285,14 percentage of SML (or restriction)
same,Worst Case Calculation of migration in EU Cube model (as a percentage of SML),[3]; [7],14 percentage of SML
same,"Worst-case calculation as a percentage of SML (or restriction), Application 2",[4]; product SBDEV980,20.2 percentage of SML (or restriction)
same,"Worst-case calculation as a percentage of SML (or restriction), Application 2",[4]; product SBDEV1285,20.2 percentage of SML (or restriction)
same,SML or Restriction (mg substance/kg food),[1],0.09 mg substance/kg food
"OCCNCCO [0000111-42-2, Diethanolamine]",Worst Case Calculation of migration in EU Cube model: Basis for Safety outcome,"[3]; substance in ink SBDEV977 (Ex. 4A Yellow), volatile substance",Converter
"CCCCCCCC/C=C\CCCCCCCC(=O)OCC [0000111-62-6, Ethyl Oleate]","Worst-case calculation as a percentage of SML (or restriction), Application 1",[2]; product SBDEV976,9.42 percentage of SML (or restriction)
same,"Worst-case calculation as a percentage of SML (or restriction), Application 1",[2]; product SBDEV977,9.42 percentage of SML (or restriction)
same,"Worst-case calculation as a percentage of SML (or restriction), Application 1",[2]; product SBDEV979,8.92 percentage of SML (or restriction)
same,"Worst-case calculation as a percentage of SML (or restriction), Application 1",[2]; product SBDEV980,9.45 percentage of SML (or restriction)
same,"Worst-case calculation as a percentage of SML (or restriction), Application 1",[2]; product SBDEV1284,8.91 percentage of SML (or restriction)
same,"Worst-case calculation as a percentage of SML (or restriction), Application 1",[2]; product SBDEV1285,8.91 percentage of SML (or restriction)
same,"Worst-case calculation as a percentage of SML (or restriction), Application 1",[2]; product SBDEV1286,8.91 percentage of SML (or restriction)
same,"Worst-case calculation as a percentage of SML (or restriction), Application 1",[2]; product SBDEV1287,8.91 percentage of SML (or restriction)
same,"Worst-case calculation as a percentage of SML (or restriction), EU Cube",[3]; product SBDEV976,24.0 percentage of SML (or restriction)
same,"Worst-case calculation as a percentage of SML (or restriction), EU Cube",[3]; product SBDEV977,24.0 percentage of SML (or restriction)
same,"Worst-case calculation as a percentage of SML (or restriction), EU Cube",[3]; product SBDEV979,22.7 percentage of SML (or restriction)
same,"Worst-case calculation as a percentage of SML (or restriction), EU Cube",[3]; product SBDEV980,24.0 percentage of SML (or restriction)
same,"Worst-case calculation as a percentage of SML (or restriction), EU Cube",[3]; product SBDEV1284,22.7 percentage of SML (or restriction)
same,"Worst-case calculation as a percentage of SML (or restriction), EU Cube",[3]; product SBDEV1285,22.7 percentage of SML (or restriction)
same,"Worst-case calculation as a percentage of SML (or restriction), EU Cube",[3]; product SBDEV1286,22.7 percentage of SML (or restriction)
same,"Worst-case calculation as a percentage of SML (or restriction), EU Cube",[3]; product SBDEV1287,22.7 percentage of SML (or restriction)
same,Worst Case Calculation of migration in EU Cube model (as a percentage of SML),[3]; [6],24.0 percentage of SML
same,Worst Case Calculation of migration in EU Cube model (as a percentage of SML),[3]; [5],24 percentage of SML
same,Worst Case Calculation of migration in EU Cube model (as a percentage of SML),[3]; substance in ink SBDEV979 (Ex. 4D Black),22.2 percentage of SML
same,Worst Case Calculation of migration in EU Cube model (as a percentage of SML),[3]; [7],24.0 percentage of SML
same,"Worst-case calculation as a percentage of SML (or restriction), Application 2",[4]; product SBDEV976,34.6 percentage of SML (or restriction)
same,"Worst-case calculation as a percentage of SML (or restriction), Application 2",[4]; product SBDEV977,34.6 percentage of SML (or restriction)
same,"Worst-case calculation as a percentage of SML (or restriction), Application 2",[4]; product SBDEV979,32.7 percentage of SML (or restriction)
same,"Worst-case calculation as a percentage of SML (or restriction), Application 2",[4]; product SBDEV980,34.5 percentage of SML (or restriction)
same,"Worst-case calculation as a percentage of SML (or restriction), Application 2",[4]; product SBDEV1284,32.68 percentage of SML (or restriction)
same,"Worst-case calculation as a percentage of SML (or restriction), Application 2",[4]; product SBDEV1285,32.68 percentage of SML (or restriction)
same,"Worst-case calculation as a percentage of SML (or restriction), Application 2",[4]; product SBDEV1286,32.68 percentage of SML (or restriction)
same,"Worst-case calculation as a percentage of SML (or restriction), Application 2",[4]; product SBDEV1287,32.68 percentage of SML (or restriction)
same,SML or Restriction (mg substance/kg food),[1],0.09 mg substance/kg food
"O=Cc1ccc(-c2ccccc2)cc1 [0003218-36-8, 4-Phenylbenzaldehyde]",SML or Restriction (mg substance/kg food),[1],0.09 mg substance/kg food
"CCCOC(CC)OCCC [0004744-11-0, Propane, 1,1-dipropoxy-]",SML or Restriction (mg substance/kg food),[1],0.09 mg substance/kg food
"O=C1NC(=O)C(=C2NC(=O)c3ccccc32)C(=O)N1 [0013481-50-0, 2,4,6(1H,3H,5H)-Pyrimidinetrione, 5-(2,3-Dihydro-3-Oxo-1H-Isoindol-1-Ylidene)-]",SML or Restriction (mg substance/kg food),[1],0.09 mg substance/kg food
CCCCCCCC/C=C\CCCCCCCC(=O)OCC [Ethyl Oleate],SML (or restriction),[1],0.09 mg substance/kg food
"CCCOC(CC)OCCC [Propane, 1,1-dipropoxy-]",SML (or restriction),[1],0.09 mg substance/kg food
